Measurements taken from patent US20150065456A1, “AGENT FOR TREATMENT AND PREVENTION OF CANCER” (Daiichi Sankyo Company, Limited, priority 2013, published 2015).
Like-named read-outs stand apart in the source and are kept apart here.

Legend:
[1] = system: subjects with symptomatic venous thromboembolism (VTE); experiment: Hokusai VTE phase 3 clinical study: investigator-reported malignancies clinically evident post-randomization; format: in vivo, human; conditions: for All Subjects with a Malignancy Event, HR: edoxaban vs warfarin, Cox proportional hazards model
Experimental: The study was a randomized, double-blind, clinical study, in which subjects with symptomatic venous thromboembolism (VTE), which included PE, with or without deep venous thrombosis (DVT), or DVT only, were treated with either edoxaban or warfarin, a Vitamin K antagonist, which is an indirect inhibitor of coagulation. […] The subjects participating in the study were adult male and female patients presenting with acute, symptomatic DVT involving popliteal, femoral, or ileac veins, or PE requiring anti-thrombotic therapy. Patients with various types of cancer were among the subjects who were treated in this study, so long as long term treatment with heparin was not anticipated as a treatment regimen for such patients. This clinical study is named Hokusai-VTE and is the largest single phase 3 clinical study in the treatment and prevention of recurrence of VTE using an FXa inhibitor such as edoxaban. More than 8,250 patients were enrolled in the study from more than 400 clinical sites across 38 countries worldwide. The Hokusai-VTE clinical study was designed to reflect clinical practice, using a standard heparin lead-in and providing a flexible treatment duration of three, six or twelve months. This study design allowed the evaluation of patients with a broad range of risks, including patients with moderate or severe conditions of PE and DVT. […] (See, Example 1, infra).
The study (Hokusai VTE Clinical Study) constituted a phase 3, randomized, double-blind, double-dummy, parallel-group, multi-center, multi-national study for the evaluation of efficacy and safety of (LMW) heparin/edoxaban versus (LMW) heparin/warfarin in subjects with symptomatic deep-vein thrombosis and/or pulmonary embolism. The study indication related to the reduction of the risk of symptomatic recurrent venous thromboembolic complications in patients with acute symptomatic deep vein thrombosis (DVT) and/or pulmonary embolism (PE). […] Accordingly, the nature of the study was the use of edoxaban as direct inhibitor of Factor Xa in the treatment of VTE.
Following stratification and treatment allocation as described above, all patients were randomized to either a standard of care (SOC) treatment regimen, i.e., heparin+warfarin, until the international normalized ratio (INR) was between 2-3, followed by warfarin alone; or an edoxaban treatment regimen, i.e., heparin for 5 days followed by edoxaban (as the free base) at a dose of 60-mg QD (or 30-mg QD, in the low exposure group). This study aimed to treat all patients for the entire 12 month period following randomization. Ultimately, the evolving nature of the patient's clinical status and changes in the risk/benefit over time determined the length of treatment for a given patient. Irrespective of actual treatment duration, all patients were followed for the entire 12 months after randomization.
Edoxaban was administered in 30 and 60 mg dose-strengths in tablet form. Warfarin was administered in 1, 2.5 and 5 mg dose-strengths. Matching placebos were used for each of the test drugs. Edoxaban and warfarin were administered orally (PO). Enoxaparin was administered by subcutaneous (SC) injection.
The study was an event-driven, Phase 3, multi-national, multi-center, randomized, double-blind, matching placebo, parallel-group non-inferiority study for efficacy. The total study period after randomization was 12 months in duration. Ideally, all subjects remained on study treatment throughout this period. However, mitigating factors related to the subject's clinical status could influence the total duration of treatment a given subject actually received (See, Treatment Arms, below). Nevertheless, all subjects were administered a minimum of three months' treatment consistent with current ACCP Guidelines.

[2] = rats; cited from earlier work
[3] = monkeys; cited from earlier work
[4] = cited from earlier work
[5] = Overall Study Period (up to 12 months)

Row | SMILES | All Subjects with a Malignancy Event, (%) ([1]; On-Treatment Study Period) | Leukemia, Lymphoma, and Other Blood Malignancies, (%) ([1]; On-Treatment Study Period) | Malignancy diagnosed as a result of work-up for anemia or bleeding: No, (%) ([1]; On-Treatment Study Period) | Malignancy diagnosed as a result of work-up for anemia or bleeding: Yes, (%) ([1]; On-Treatment Study Period) | Solid Tumor, (%) ([1]; On-Treatment Study Period) | All Subjects with a Malignancy Event, (%) [1, 5] | Leukemia, Lymphoma, and Other Blood Malignancies, (%) [1, 5] | Malignancy diagnosed as a result of work-up for anemia or bleeding: No, (%) [1, 5] | Malignancy diagnosed as a result of work-up for anemia or bleeding: Yes, (%) [1, 5] | Solid Tumor, (%) [1, 5] | All Subjects with a Malignancy Event, (%) ([1]; Treatment+30 Days Study Period) | Leukemia, Lymphoma, and Other Blood Malignancies, (%) ([1]; Treatment+30 Days Study Period) | Malignancy diagnosed as a result of work-up for anemia or bleeding: No, (%) ([1]; Treatment+30 Days Study Period) | Malignancy diagnosed as a result of work-up for anemia or bleeding: Yes, (%) ([1]; Treatment+30 Days Study Period) | Solid Tumor, (%) ([1]; Treatment+30 Days Study Period) | further results
1 | CN1CCc2nc(C(=O)N[C@@H]3C[C@@H](C(=O)N(C)C)CC[C@@H]3NC(=O)C(=O)Nc3ccc(Cl)cn3)sc2C1 [Edoxaban] | (1.6) % | (<0.1) % | (1.4) % | (0.2) % | (1.5) % | (2.8) % | (0.2) % | (2.2) % | (0.6) % | (2.7) % | (2.4) % | (0.1) % | (1.8) % | (0.6) % | (2.3) % | Kaplan-Meier cumulative incidence (%) of new or recurrent malignancies versus warfarin-treated subjects ([1]; FIG. 1, treatment +30 days study period, 390 days from initial study drug administration): significant decrease; Kaplan-Meier cumulative incidence (%) of new or recurrent malignancies versus warfarin-treated subjects ([1]; FIG. 2, overall study period, about 360 days from initial study drug administration): significant decrease; All Subjects with a Malignancy Event, HR ([1]; On-Treatment Study Period): 0.73; All Subjects with a Malignancy Event, HR ([1]; Overall Study Period): 0.85; All Subjects with a Malignancy Event, HR ([1]; Treatment+30 Days Study Period): 0.84; oral bioavailability [2]: orally bioavailable; oral bioavailability [3]: orally bioavailable; safety and tolerability ([4]; doses of up to 90-mg per day): generally safe and well tolerated; oral bioavailability ([4]; human subjects): orally bioavailable
2 | CC(=O)CC(c1ccccc1)c1c(O)c2ccccc2oc1=O (stereo not drawn) [Warfarin, warfarin, reference compound] | 2.2% | 0.1% | 1.9% | 0.2% | 2.0% | 3.3% | 0.2% | 2.8% | 0.5% | 3.1% | 2.9% | 0.2% | 2.4% | 0.5% | 2.6% | –
